Measured values: patent US20170270277A1, “METHOD FOR SUPERVISING CONSUMPTION OF A MEDICAL FOOD FOR PREVENTION AND/OR MANAGEMENT OF A DISEASE OR CONDITION” (Photonz Corporation Ltd., priority 2012, published 2017)

Test: Laboratory test of the patient's serum lipids after consumption of the medical food, change from baseline (Example 4)
Type: in vivo
Conditions: 'one or more of'
Source text: “Blood data” as used herein includes levels of cholesterol, diglycerides and triglycerides amongst other parameters described herein. Blood data parameters can be measured in accordance with any clinically acceptable methodology. For example, triglycerides, total cholesterol, HDL-C and fasting blood sugar can be sampled from serum and analyzed using standard photometry techniques. VLDL-TG, LDL-C and VLDL-C can be calculated or determined using serum lipoprotein fractionation by preparative ultracentrifugation and subsequent quantitative analysis by refractometry or by analytic ultracentrifugal methodology. Apo AI, Apo B and hsCRP can be determined from serum using standard nephelometry techniques. Lipoprotein (a) can be determined from serum using standard turbidimetric immunoassay techniques. LDL particle number and particle size can be determined using nuclear magnetic resonance (NMR) spectrometry. Remnants lipoproteins and LDL-phospholipase A2 can be determined from EDTA plasma or serum and serum, respectively, using enzymatic immunoseparation techniques. Oxidized LDL, intercellular adhesion molecule-1 and interleukin-6 levels can be determined from serum using standard enzyme immunoassay techniques. These techniques are described in detail in standard textbooks, for example Tietz Fundamentals of Clinical Chemistry, 6th Ed. (Burtis, Ashwood and Borter Eds.), WB Saunders Company. In one embodiment, subjects fast for up to 12 hours prior to blood sample collection, for example about 10 hours.
This is a further example of one particular embodiment of practicing the invention. The results presented in this example are expected to be generated.
A patient is concerned about maintaining good cardiovascular health and advises a medical professional of this desire. The patient may be risk of developing or be diagnosed of having mixed dyslipidemia, hyperlipidemia and hypertriglyceridemia.
The medical professional sets up a laboratory in accordance with clinically acceptable methodologies to determine the patient's serum lipids including triglycerides, total cholesterol, HDL cholesterol, LDL cholesterol and fasting blood sugar. The patient may have one or more of: a baseline triglyceride level of about 300 mg/dl to about 1500 mg/dl; baseline non-HDL-C value of about 200 mg/dl to about 400 mg/dl; baseline total cholesterol value of about 250 mg/dl to about 400 mg/dl; baseline vLDL-C value of about 140 mg/dl to about 200 mg/dl; baseline HDL-C value of about 10 to about 60 mg/dl; and/or baseline LDL-C value of about 50 to about 300 mg/dl.
Additional patient registration data including age, sex, weight, relative level of fitness and health, history of illness, family history of illness, and current prescribed pharmaceutical medications and medical foods and dosages, are also accumulated as a data set on a back end computer. The medical professional queries the backend computer about the patient's laboratory data and lifestyle metrics and this back end computer calculates the dose of the EPA-ethyl ester to be provided to the patient as a medical food for a certain period of time based on the analyzed metrics in order for that patient's serum lipids to be returned to normal levels with a low risk of cardiovascular disease. […]
After consumption of the medical food for the specified period of time, the patient receives another laboratory test of their serum lipids and the data is analyzed for changes from the original baseline on the back end computer. […]

[1] = same patient and medical food dosing

In the case of `CC/C=C\C/C=C\C/C=C\C/C=C\C/C=C\CCCC(=O)OCC` [EPA-ethyl ester, eicosapentaenoyl-ethyl ester], the “triglyceride levels compared to baseline” value (patient at risk of or with mixed dyslipidemia, hyperlipidemia, hypertriglyceridemia, 1 to 4 g of at least 60% pure EPA-ethyl ester 1 to 4 times per day) was “reduced”, the “Apo B levels compared to baseline” value [1] was “reduced” and the “HDL-C levels compared to baseline” value [1] was “increased”. For the same compound, the “non-HDL-C levels compared to baseline” value [1] was “a reduction” and the “vLDL levels compared to baseline” value [1] was “a reduction”.
